Laboratory results reported in patent publication US8734775B2, “Chemokine derived peptides that bind with chemokine receptor CXCR3 and uses for chronic wound and angiogenesis inhibition treatments” (University of Pittsburgh, priority 2011, dated 2014).

What was measured:
HMEC-1 cells = experiment: Tube formation after pre-treatment with CXCR3-neutralizing antibody; type: cell-based, human
Experimental: To determine if the IP-10dp peptide is acting through the same signaling pathways as IP-10, an experiment was conducted using a CXCR3-neutralizing antibody (also referred to herein as CXCR3 Ab) to assess that antibody's impact upon IP-10dp's ability to block tube formation. HMEC-1 cells were grown, detached and re-suspended in serum-free media and all were pretreated with CXCR3 Ab (0.5 μg/ml) 30 minutes prior to the addition of VEGF (75 ng/ml), IP-10 (300 ng/ml), IP-10dp (10 μM) and/or Immunoglobulin G (or “IgG,” as control). The thus-treated cells (1×10^4 cells/well) were added to 24-well culture plates coated with growth factor reduced Matrigel and incubated for 24 hours, and endothelial tubes were allowed to form as described above. Images were obtained as above. […]
Quantification of the endothelial tubes formed was performed as above, using MetaMorph, with the data being shown in the graphs of FIG. 6B are of N=6 and normalized to no treatment (average±SEM), and with *P<0.05.

CXCR3 on HMEC-1 cells = target: T1, CXCR3 on HMEC-1 cells (Homo sapiens, UniProt P49682); experiment: Flow cytometry binding of biotin-tagged peptide to HMEC-1 cells
T1 construct: HMEC-1 cells express CXCR3; endogenous in cells; host or cells: HMEC-1 (human dermal microvascular endothelial cells)
T1 sequence (P49682 1-415 isoform P49682-2): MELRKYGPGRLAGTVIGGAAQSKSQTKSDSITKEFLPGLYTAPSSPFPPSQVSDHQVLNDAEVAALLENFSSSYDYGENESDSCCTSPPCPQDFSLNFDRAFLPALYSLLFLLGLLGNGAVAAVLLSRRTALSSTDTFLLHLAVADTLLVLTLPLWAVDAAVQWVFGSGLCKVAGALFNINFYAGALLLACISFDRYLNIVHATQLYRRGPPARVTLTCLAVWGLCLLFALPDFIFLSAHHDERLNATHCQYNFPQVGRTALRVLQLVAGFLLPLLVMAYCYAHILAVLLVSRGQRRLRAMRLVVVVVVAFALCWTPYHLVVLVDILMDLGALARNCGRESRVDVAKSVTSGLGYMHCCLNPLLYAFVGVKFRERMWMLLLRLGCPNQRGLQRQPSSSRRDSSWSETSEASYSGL
Experimental: In the various experiments described below, unless otherwise noted, Biotin labeling was accomplished according to the following procedure. Sulfo-NHS-LC-Biotin (Thermo Scientific 21327) was prepared to result in a 10 mM solution of Biotin. IP-10, IP-10dp or anti-CXCR3 neutralizing antibody were dissolved in PBS according to result in a 20-fold molar excess of biotin reagent to give a 4-6 biotin groups per peptide molecule. The biotin reagent and IP-10 and/or IP-10dp was mixed and incubated on ice for 2 hours. Appropriate controls were used to determine the levels of biotin incorporation. HMEC-1 cells were washed in ice-cold PBS (pH 8) to remove amine-containing media and proteins. Cells were suspended and Sulfo-NHS-LC-Biotin label peptide was added. Mixture was incubated at 4° C. to reduce active internalization of the biotin reagent for 30 minutes. Cells were then washed three times in PBS+100 mM glycine to quench and remove excess biotin. Cells were then incubated with streptavidin conjugated with FITC and analyzed on a BD FACSCalbur flow cytometer.
To determine whether IP-10dp binds to CXCR3 on human dermal microvascular endothelial cells, we analyzed the ability of Sulfo-LC-Biotin tagged IP-10 and IP-10dp to bind to H MEC-1 cells using flow cytometery. […] The cells were then incubated with FITC conjugated with streptavidin, and then analyzed on a BD FACSCalbur flow cytometer. […]

[1] = tested on: PKA activity in HMEC-1 cells; experiment: PKA activity assay in endothelial cells; type: cell-based, human; conditions: IP-10dp 10 μM
Experimental: To further investigate the cAMP activation of PKA, a PKA assay experiment was conducted. As above, HMEC-1 cells were grown in complete growth media then further incubated in 0.5% dialyzed FBS MCDB 131 media for 24 hours. The cells were then stimulated with forskolin ([…]), and/or combinations of VEGF (100 ng/ml), IP-10 (200 ng/ml), and/or IP-10dp (10 μM) for 15, 30 and 60 minutes. The cells were lysed with an ice-cold hypotonic solution (50 mM Tris pH 7.4, 1 mM EDTA, 10 mg/ml aprotinin and 1 mM PMSF). The cells were incubated on ice for 30 minutes then centrifuged to remove the cell membranes. PKA activity was measured using a commercially available cAMP dependent protein kinase kit (Non-Radioactive Detection kit, from Promega Corp., of Madison, Wis.) according to the manufacturer's protocol. Absorbance was read at 570 nm with the solubilization buffer serving as a blank.

[2] = tested on: cAMP production in HMEC-1 cells; experiment: cAMP enzyme immunoassay in endothelial cells; type: cell-based, human
Experimental: Thus, an experiment was conducted to determine if stimulation of endothelial cells with IP-10dp would induce an increase in cAMP. HMEC-1 cells were plated in 10 mm culture dishes and grown to confluency in complete growth media. The cells were then incubated in serum-reduced media (0.5% dialyzed FBS for HMEC-1 cells) for 24 hours at 37° C. The cells were then washed once with PBS and incubated in serum-free media. The cells were then stimulated with forskolin ([…]), VEGF (100 ng/ml), IP-10 (200 ng/ml), IP-10dp (10 μM) alone or in various combinations. The media was removed and ice cold 80% ethanol was added and the cells incubated on ice for 15 minutes. The extracts were evaluated and quantified for total cAMP production by using a cAMP enzyme immunoassay kit provided by Sigma-Aldrich Corp., of St. Louis, Mo., according to the manufacturer's protocol.

Sequence: PESKAIKNLLKAVSKEMSKRSP (IP-10dp; listed as Homo sapiens) [synthetic fragment of IP-10 comprising residues 78-98, the C-terminal α-helical domain]
- tube formation inhibition after CXCR3 Ab pre-treatment (HMEC-1 cells; CXCR3 Ab 0.5 μg/ml 30 minutes before, IP-10 300 ng/ml, IP-10dp 10 μM): significantly blocked
- effect on VEGF-driven tube formation when CXCR3 receptor neutralized (HMEC-1 cells; CXCR3 Ab 0.5 μg/ml, VEGF 75 ng/ml): unable to override the angiogenic signals from VEGF
- binding to HMEC-1 cells (CXCR3 on HMEC-1 cells; Sulfo-LC-Biotin tagged peptide, streptavidin-FITC, flow cytometry): binds to human endothelial cells
- fluorescence intensity of binding to CXCR3 on HMEC-1 cells compared with full length IP-10 (CXCR3 on HMEC-1 cells; relative to control, biotin-tagged): slightly lower fluorescence intensity
- fold increase in PKA assay [1]: 2-3 fold
- PKA activity in comparison to VEGF and untreated cells ([1]; 15, 30 and 60 minutes): significant increase in PKA activity
- increase in cAMP production compared to control and VEGF treated cells ([2]; IP-10dp 10 μM): 2-3 fold
- cAMP production with VEGF plus IP-10dp compared to VEGF alone ([2]; VEGF 100 ng/ml plus IP-10dp 10 μM): significant increase in cAMP production
